Laboratory results: patent publication US11459312B2, “Sulphur substituted 3-oxo-2,3-dihydropyridazine-4-carboxamides” (Bayer Aktiengesellschaft, priority 2017, dated 2022)

Molecular target: T1, AHR (Homo sapiens, UniProt P35869)
T1 sequence (P35869 11-848): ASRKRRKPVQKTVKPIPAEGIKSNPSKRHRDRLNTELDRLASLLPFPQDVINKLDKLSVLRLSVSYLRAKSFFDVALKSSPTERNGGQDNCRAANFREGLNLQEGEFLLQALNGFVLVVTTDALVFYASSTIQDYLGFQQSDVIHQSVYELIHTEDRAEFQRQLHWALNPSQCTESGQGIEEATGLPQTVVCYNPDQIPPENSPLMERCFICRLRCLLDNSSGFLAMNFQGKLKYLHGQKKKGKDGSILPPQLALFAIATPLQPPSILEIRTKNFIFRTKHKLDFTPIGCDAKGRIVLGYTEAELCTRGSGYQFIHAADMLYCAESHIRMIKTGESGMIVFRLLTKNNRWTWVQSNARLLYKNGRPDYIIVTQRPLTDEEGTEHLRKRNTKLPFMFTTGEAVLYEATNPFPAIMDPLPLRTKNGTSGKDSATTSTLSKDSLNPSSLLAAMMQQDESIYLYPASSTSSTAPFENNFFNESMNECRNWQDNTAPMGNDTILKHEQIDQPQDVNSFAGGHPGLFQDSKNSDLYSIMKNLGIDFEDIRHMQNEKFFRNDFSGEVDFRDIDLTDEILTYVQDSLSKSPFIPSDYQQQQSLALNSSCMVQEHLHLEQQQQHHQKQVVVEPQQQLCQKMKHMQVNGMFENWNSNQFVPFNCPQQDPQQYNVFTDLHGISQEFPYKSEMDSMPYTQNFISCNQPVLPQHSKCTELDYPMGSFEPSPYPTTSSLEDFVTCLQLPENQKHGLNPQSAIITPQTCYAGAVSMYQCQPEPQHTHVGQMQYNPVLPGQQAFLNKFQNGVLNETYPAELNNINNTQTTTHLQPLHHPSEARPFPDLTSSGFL
Test: In vitro assay 1: AHR-luc transactivation assay, antagonism in human cell line (U87 glioblastoma cells, kynurenic acid prestimulated)
Format: cell-based
Design: U87 glioblastoma cells (ATCC) endogenously expressing AHR; host or cells: U87 glioblastoma cells, stably transfected with DRE-firefly luciferase and renilla reporter constructs only
Settings: firefly luciferase DRE reporter, 150 μM kynurenic acid, 20 hours, read-out: Assay 1: AHR-luc Hum Antagonism IC50
Method: Transactivation Assay in Human Cell Line (In Vitro Assays 1 and 2)
Transactivation assays were carried out in U87 glioblastoma cells (ATCC) endogenously expressing AHR. In addition the cells were stably transfected with an AHR inducible firefly luciferase reporter gene construct that carried AHR-binding sites (DRE) in its promoter and a renilla reporter gene construct with constitutively active promoter. Kynurenic acid is an endogenous AHR activating ligand and was used to prestimulate test cells prior to testing the antagonistic properties of compounds.
In Vitro Assay 1: Antagonism in Human Cell Line
Cells in medium (tryptophan free RPMI, 1% FCS, 2 mM Glutamine) supplemented with 150 μM kynurenic acid were grown for 20 hours in absence (negative control) or presence of increasing concentrations of test compounds (typical dilutions: […], 0.25 nmol/L, 0.89 nmol/L; 3.1 nmol/L, 11 nmol/L, 38 nmol/L, 130 nmol/L, 470 nmol/L, 1.6 μmol/L, 5.7 μmol/L and 20 μmol/L in duplicates). As positive inhibition control cells supplemented with 150 μM kynurenic acid were incubated in presence of 5 μM Staurosporin. Normalization was done by positive and negative controls.
Firefly luciferase and Renilla activity was determined by the DualGlo Luciferase Assay System (Promega, #2920). Renilla activity was used to assess toxic effects of compounds.

| SMILES | IC50 [nM] |
| --- | --- |
| C[C@@H](C[S+](C)[O-])NC(=O)c1cc(-c2ccc(Cl)cc2)nn(-c2cccc(F)c2)c1=O (single isomer, unassigned) [Example 5] | 180 |
| CSC[C@H](C)NC(=O)c1cc(-c2ccc(C(F)(F)F)cc2)nn(-c2cnn(C)c2)c1=O [Example 9, 2-(1-Methyl-1H-pyrazol-4-yl)-N-[(2S)-1-(methylsulfanyl)propan-2-yl]-3-oxo-6-[4-(trifluoromethyl)phenyl]-2,3-dihydropyridazine-4-carboxamide] | 6.99 |
| C[C@@H](CS(C)(=N)=O)NC(=O)c1cc(-c2ccc(C(F)(F)F)cc2)nn(-c2cnn(C)c2)c1=O (single isomer, unassigned) [Example 39] | 133 |
| C[S+]([O-])CCNC(=O)c1cc(-c2ccc(Cl)cc2)nn(-c2cccc(F)c2)c1=O (stereo not drawn) [Example 51, 6-(4-Chlorophenyl)-2-(3-fluorophenyl)-N-[2-(methylsulfinyl)ethyl]-3-oxo-2,3-dihydropyridazine-4-carboxamide] | 393 |
| O=C(N[C@@H]1C[S+]([O-])C[C@@H]1O)c1cc(-c2ccc(C(F)(F)F)cc2)nn(-c2cccnc2)c1=O (single isomer, unassigned) [Example 34, N-[(cis)-4-hydroxy-1-oxidotetrahydro-thiophen-3-yl]-3-oxo-2-(pyridin-3-yl)-6-[4-(trifluoromethyl)phenyl]-2,3-dihydropyridazine-4-carboxamide] | 78.8 |
| O=C(N[C@@H]1C[S+]([O-])C[C@@H]1O)c1cc(-c2ccc(C(F)(F)F)cc2)nn(-c2cccnc2)c1=O (single isomer, unassigned) [Example 36, N-[(cis)-4-hydroxy-1-oxidotetrahydro-thiophen-3-yl]-3-oxo-2-(pyridin-3-yl)-6-[4-(trifluoromethyl)phenyl]-2,3-dihydropyridazine-4-carboxamide] | 295 |
| N=S1(=O)C[C@H](O)[C@H](NC(=O)c2cc(-c3ccc(Cl)cc3)nn(-c3cccc(F)c3)c2=O)C1 (stereo partly drawn) [Example 42, 6-(4-chlorophenyl)-2-(3-fluorophenyl)-N-[(cis)-4-hydroxy-1-imino-1-oxidotetrahydro-1H-1lambda4-thiophen-3-yl]-3-oxo-2,3-dihydropyridazine-4-carboxamide] | 34.9 |
| N=S1(=O)C[C@H](O)[C@H](NC(=O)c2cc(-c3ccc(Cl)cc3)nn(-c3cccc(F)c3)c2=O)C1 (single isomer, unassigned) [Example 43, 6-(4-chlorophenyl)-2-(3-fluorophenyl)-N-[(cis)-4-hydroxy-1-imino-1-oxidotetrahydro-1H-1lambda4-thiophen-3-yl]-3-oxo-2,3-dihydropyridazine-4-carboxamide] | 43.8 |
| Cn1cc(-n2nc(-c3ccc(C(F)(F)F)cc3)cc(C(=O)N[C@@H]3CS(=N)(=O)C[C@@H]3O)c2=O)cn1 (stereo partly drawn) [Example 47, N-[(cis)-4-hydroxy-1-imino-1-oxidotetrahydro-1H-1lambda4-thiophen-3-yl]-2-(1-methyl-1H-pyrazol-4-yl)-3-oxo-6-[4-(trifluoromethyl)phenyl]-2,3-dihydropyridazine-4-carboxamide] | 158 |
| CS(=O)(=O)CCNC(=O)c1cc(-c2ccc(Cl)cc2)nn(-c2cccc(F)c2)c1=O [Example 59, 6-(4-Chlorophenyl)-2-(3-fluorophenyl)-N-[2-(methylsulfonyl)ethyl]-3-oxo-2,3-dihydropyridazine-4-carboxamide] | 326 |
| O=C(N[C@@H]1C[S+]([O-])C[C@@H]1O)c1cc(-c2ccc(C(F)(F)F)cc2)nn(-c2cccnc2)c1=O (single isomer, unassigned) [Example 35, N-[(cis)-4-hydroxy-1-oxidotetrahydro-thiophen-3-yl]-3-oxo-2-(pyridin-3-yl)-6-[4-(trifluoromethyl)phenyl]-2,3-dihydropyridazine-4-carboxamide] | 272 |
| Cn1cc(-n2nc(-c3ccc(C(F)(F)F)cc3)cc(C(=O)N[C@@H]3C[S+]([O-])C[C@@H]3O)c2=O)cn1 (relative stereo) [Example 32, N-[(cis)-4-hydroxy-1-oxidotetrahydro-thiophen-3-yl]-2-(1-methyl-1H-pyrazol-4-yl)-3-oxo-6-[4-(trifluoromethyl)phenyl]-2,3-dihydropyridazine-4-carboxamide] | 41.6 |
| C[C@@H](CS(C)(=N)=O)NC(=O)c1cc(-c2ccc(Cl)cc2)nn(-c2cccc(F)c2)c1=O (mixture of isomers) [Example 6, 6-(4-Chlorophenyl)-2-(3-fluorophenyl)-N-[(2S)-1-(S-methylsulfonimidoyl)propan-2-yl]-3-oxo-2,3-di hydropyridazine-4-carboxamide] | 232 |

Further molecules by falling IC50, results first:

| IC50 [nM] | SMILES |
| --- | --- |
| 700 | CS(=N)(=O)CCNC(=O)c1cc(-c2ccc(Cl)cc2)nn(-c2cccc(F)c2)c1=O (stereo not drawn) [Example 52, 6-(4-Chlorophenyl)-2-(3-fluorophenyl)-N-[2-(S-methylsulfonimidoyl)ethyl]-3-oxo-2,3-dihydropyridazine-4-carboxamide] |
| 205 | O=C(N[C@@H]1CS(=O)(=O)C[C@@H]1O)c1cc(-c2ccc(C(F)(F)F)nc2)nn(-c2cccc(F)c2)c1=O (single isomer, unassigned) [Example 21, (−)-2-(3-fluorophenyl)-N-[(cis)-4-hydroxy-1,1-dioxidotetrahydro-thiophen-3-yl]-3-oxo-6-[6-(trifluoromethyl)pyridin-3-yl]-2,3-dihydropyridazine-4-carboxamide] |
| 145 | O=C(N[C@@H]1C[S+]([O-])C[C@@H]1O)c1cc(-c2ccc(Cl)cc2)nn(-c2cccc(F)c2)c1=O (single isomer, unassigned; (+)) [Example 31, (+)-6-(4-chlorophenyl)-2-(3-fluorophenyl)-N-[(cis)-4-hydroxy-1-oxidotetrahydro-thiophen-3-yl]-3-oxo-2,3-dihydropyridazine-4-carboxamide] |
| 145 | O=C(N[C@@H]1CCS(=O)(=O)C1)c1cc(-c2ccc(Cl)cc2)nn(-c2cccc(F)c2)c1=O (stereo in doubt) [Example 58, 6-(4-Chlorophenyl)-N-(1,1-dioxidotetrahydrothiophen-3-yl)-2-(3-fluorophenyl)-3-oxo-2,3-dihydropyridazine-4-carboxamide] |
| 80.3 | C[C@@H](CS(C)(=N)=O)NC(=O)c1cc(-c2ccc(C(F)(F)F)cc2)nn(-c2cnn(C)c2)c1=O (single isomer, unassigned) [Example 40] |
| 44.2 | C[C@@H](C[S+](C)[O-])NC(=O)c1cc(-c2ccc(Cl)cc2)nn(-c2cccc(F)c2)c1=O (mixture of isomers) [Example 3, 6-(4-Chlorophenyl)-2-(3-fluorophenyl)-N-[(2S)-1-(methylsulfinyl)propan-2-yl]-3-oxo-2,3-dihydropyridazine-4-carboxamide] |
| 29.2 | O=C(N[C@@H]1CS(=O)(=O)C[C@@H]1O)c1cc(-c2ccc(C(F)(F)F)cc2)nn(-c2cccnc2)c1=O (relative stereo) [Example 16, N-[(cis)-4-hydroxy-1,1-dioxidotetrahydro-thiophen-3-yl]-3-oxo-2-(pyridin-3-yl)-6-[4-(trifluoromethyl)phenyl]-2,3-dihydropyridazine-4-carboxamide] |
| 21.9 | C[C@@H](CS(C)(=O)=O)NC(=O)c1cc(-c2ccc(C(F)(F)F)cc2)nn(-c2cnn(C)c2)c1=O [Example 22, 2-(1-Methyl-1H-pyrazol-4-yl)-N-[(2S)-1-(methylsulfonyl)propan-2-yl]-3-oxo-6-[4-(trifluoromethyl)phenyl]-2,3-dihydropyridazine-4-carboxamide] |
